Assay results taken from patent US8129399B2, “Aminopyrimidines useful as kinase inhibitors” (Vertex Pharmaceuticals Incorporated, priority 2005, dated 2012).
Like-named read-outs stand apart in the source and are kept apart here.

Experiments:
Aurora-2 (Aurora A) = target: T1, Aurora-2 (Aurora A) (Homo sapiens, UniProt O14965); assay: Aurora-2 (Aurora A) inhibition assay, coupled enzyme; type: biochemical
T1 sequence (O14965 1-403): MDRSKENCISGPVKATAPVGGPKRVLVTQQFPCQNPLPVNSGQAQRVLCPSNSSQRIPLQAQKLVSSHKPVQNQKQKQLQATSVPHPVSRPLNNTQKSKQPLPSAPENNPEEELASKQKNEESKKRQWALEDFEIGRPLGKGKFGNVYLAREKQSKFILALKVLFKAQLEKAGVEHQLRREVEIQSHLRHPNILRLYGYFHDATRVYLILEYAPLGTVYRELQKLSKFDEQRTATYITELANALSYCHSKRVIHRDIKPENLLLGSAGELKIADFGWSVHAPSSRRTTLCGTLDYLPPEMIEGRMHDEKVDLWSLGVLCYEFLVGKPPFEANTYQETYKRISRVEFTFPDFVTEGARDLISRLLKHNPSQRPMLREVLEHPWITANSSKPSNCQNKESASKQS
Description: Assays were carried out in a mixture of 100 mM Hepes (pH7.5), 10 mM MgCl2, 1 mM DTT, 25 mM NaCl, 2.5 mM phosphoenolpyruvate, 300 μM NADH, 30 μg/ml pyruvate kinase and 10 μg/ml lactate dehydrogenase. […] Assays were carried out at 30° C. and in the presence of 40 nM Aurora-2.
An assay stock buffer solution was prepared containing all of the reagents listed above, with the exception of Aurora-2 and the test compound of interest. […] The plate was preincubated for 10 minutes at 30° C. and the reaction initiated by addition of 10 μl of Aurora-2. Initial reaction rates were determined with a Molecular Devices SpectraMax Plus plate reader over a 10 minute time course. IC50 and Ki data were calculated from non-linear regression analysis using the Prism software package (GraphPad Prism version 3.0cx for Macintosh, GraphPad Software, San Diego Calif., USA).

Colo205 cells = assay: Colo205 cell proliferation, 3H thymidine incorporation; type: cell-based; settings: Homo sapiens
Description: Colo205 cells were seeded in 96 well plates and serially diluted compound was added to the wells in duplicate. Control groups included untreated cells, the compound diluent (0.1% DMSO alone) and culture medium without cells.
To measure proliferation, 3 h prior to the end of the experiment 0.5 μCi of 3H thymidine was added to each well. Cells were then harvested and the incorporated radioactivity counted on a Wallac microplate beta-counter. Cell viability was assessed using Promega CellTiter 96AQ to measure MTS conversion. Dose response curves were calculated using either Prism 3.0 (GraphPad) or SoftMax Pro 4.3.1 LS (Molecular Devices) software.

FLT-3 = target: T2, FLT-3 (Homo sapiens, UniProt P36888); assay: FLT-3 inhibition assay, radiometric filter-binding; type: biochemical; settings: 90 μM ATP
T2 sequence (P36888 27-993): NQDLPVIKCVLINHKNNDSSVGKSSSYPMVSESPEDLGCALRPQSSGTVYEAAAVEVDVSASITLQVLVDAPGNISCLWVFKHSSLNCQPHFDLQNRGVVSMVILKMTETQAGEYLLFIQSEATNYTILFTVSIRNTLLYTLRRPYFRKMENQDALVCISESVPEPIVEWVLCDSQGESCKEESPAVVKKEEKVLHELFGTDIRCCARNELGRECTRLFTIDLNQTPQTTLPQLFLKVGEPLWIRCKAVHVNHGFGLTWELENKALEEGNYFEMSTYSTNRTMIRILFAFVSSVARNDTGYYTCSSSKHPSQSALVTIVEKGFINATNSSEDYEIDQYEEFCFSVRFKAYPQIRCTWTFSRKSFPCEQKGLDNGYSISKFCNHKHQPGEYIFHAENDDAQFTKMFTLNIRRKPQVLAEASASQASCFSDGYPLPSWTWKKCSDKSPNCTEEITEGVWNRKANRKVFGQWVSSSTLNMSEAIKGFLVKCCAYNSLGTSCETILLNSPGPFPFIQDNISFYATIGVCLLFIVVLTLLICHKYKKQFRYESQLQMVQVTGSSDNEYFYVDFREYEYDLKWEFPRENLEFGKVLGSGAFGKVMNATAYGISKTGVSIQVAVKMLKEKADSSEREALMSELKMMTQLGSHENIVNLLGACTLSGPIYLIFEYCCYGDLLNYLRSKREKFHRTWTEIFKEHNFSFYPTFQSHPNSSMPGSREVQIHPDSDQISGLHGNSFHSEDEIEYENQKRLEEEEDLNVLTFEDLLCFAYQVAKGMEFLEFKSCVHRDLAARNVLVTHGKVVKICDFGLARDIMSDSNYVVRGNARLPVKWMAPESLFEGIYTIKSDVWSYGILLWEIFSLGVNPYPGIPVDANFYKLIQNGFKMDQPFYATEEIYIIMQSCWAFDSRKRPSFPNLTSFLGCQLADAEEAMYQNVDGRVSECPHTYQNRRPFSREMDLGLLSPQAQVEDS
Description: This assay monitors the ^33P incorporation into a substrate poly(Glu, Tyr) 4:1 (pE4Y). Reactions were carried out in a solution containing 100 mM HEPES (pH 7.5), 10 mM MgCl2, 25 mM NaCl, 1 mM DTT, 0.01% BSA and 2.5% DMSO. Final substrate concentrations in the assay were 90 μM ATP and 0.5 mg/ml pE4Y (both from Sigma Chemicals, St Louis, Mo.). The final concentration of a compound of the present invention was generally between 0.01 and 5 μM. Typically, a 12-point titration was conducted by preparing serial dilutions from 10 mM DMSO stock of test compound. Reactions were carried out at room temperature.
Two assay solutions were prepared. Solution 1 contains 100 mM HEPES (pH 7.5), 10 mM MgCl2, 25 mM NaCl, 1 mg/ml pE4Y and […] (containing 0.3 mCi of [γ-33^P]ATP for each reaction). Solution 2 contains 100 mM HEPES (pH 7.5), 10 mM MgCl2, 25 mM NaCl, 2 mM DTT, 0.02% BSA and 3 nM FLT-3. The assay was run on a 96 well plate by mixing 50 μl each of Solution 1 and […] of the compounds of the present invention. The reaction was initiated with Solution 2. […] All of the reaction volume was then transferred to a filter plate and washed with 5% TCA by a Harvester 9600 from TOMTEC (Hamden, Conn.). The amount of ^33P incorporation into pE4y was analyzed by a Packard Top Count Microplate Scintillation Counter (Meriden, Conn.). The data was fitted using Prism software to get an IC50 or Ki.

JAK-2 = JAK-2 (Homo sapiens, UniProt O60674); assay: JAK2 inhibition assay; type: biochemical; settings: 12 μM ATP
JAK-2, sequence (O60674 whole entry, species assumed): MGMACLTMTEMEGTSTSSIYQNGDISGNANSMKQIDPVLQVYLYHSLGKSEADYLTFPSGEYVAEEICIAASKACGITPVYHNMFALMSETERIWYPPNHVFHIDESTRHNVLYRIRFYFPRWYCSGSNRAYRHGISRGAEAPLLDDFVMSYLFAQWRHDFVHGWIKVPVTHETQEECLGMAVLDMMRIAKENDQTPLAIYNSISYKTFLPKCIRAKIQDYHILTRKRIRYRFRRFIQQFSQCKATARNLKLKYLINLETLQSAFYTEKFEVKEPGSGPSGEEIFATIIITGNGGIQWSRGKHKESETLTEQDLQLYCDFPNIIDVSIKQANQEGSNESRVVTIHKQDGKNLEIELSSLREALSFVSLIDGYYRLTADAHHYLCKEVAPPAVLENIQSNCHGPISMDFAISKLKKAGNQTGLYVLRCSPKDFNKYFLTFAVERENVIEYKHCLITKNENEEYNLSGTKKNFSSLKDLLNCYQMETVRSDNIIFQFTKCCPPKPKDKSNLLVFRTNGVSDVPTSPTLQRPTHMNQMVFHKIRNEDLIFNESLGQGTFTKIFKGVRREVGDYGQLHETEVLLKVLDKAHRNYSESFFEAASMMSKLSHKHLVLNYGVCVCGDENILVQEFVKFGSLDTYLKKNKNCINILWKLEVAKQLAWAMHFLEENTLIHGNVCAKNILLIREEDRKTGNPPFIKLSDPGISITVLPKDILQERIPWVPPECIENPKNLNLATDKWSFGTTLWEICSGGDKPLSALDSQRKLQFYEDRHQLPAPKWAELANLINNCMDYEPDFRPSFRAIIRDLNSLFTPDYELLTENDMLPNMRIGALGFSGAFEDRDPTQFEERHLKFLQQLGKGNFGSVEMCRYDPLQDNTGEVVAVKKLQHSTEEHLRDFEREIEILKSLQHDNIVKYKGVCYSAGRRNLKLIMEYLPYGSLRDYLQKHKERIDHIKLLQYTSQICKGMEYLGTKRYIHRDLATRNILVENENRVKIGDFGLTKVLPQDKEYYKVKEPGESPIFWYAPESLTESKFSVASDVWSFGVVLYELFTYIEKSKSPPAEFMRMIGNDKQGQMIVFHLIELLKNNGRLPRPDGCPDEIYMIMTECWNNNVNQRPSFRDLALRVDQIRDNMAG

[1] = 400 μM ATP, 40 nM Aurora-2, read-out: Aurora A Ki
[2] = COLO 205, read-out: Colo205 inh 3H-Thy incorporation after 72 hours IC50 (uM)
[3] = COLO 205, read-out: Colo205 inh 3H-Thy incorporation after 96 hours IC50 (uM)

| SMILES | Ki (Aurora-2 (Aurora A); [1]) [nM] | IC50 (Colo205 cells; [2]) [µM] | IC50 (Colo205 cells; [3]) [µM] | Ki (FLT-3) [nM] | Ki (JAK-2) [nM] | Ki (Aurora-2 (Aurora A)) [nM] |
| --- | --- | --- | --- | --- | --- | --- |
| CCC(=O)Nc1ccc(Sc2nc(Nc3cc(C)n[nH]3)cc(N3CC(O)(C4CC4)C3)n2)cc1 [Compound I-2] | 0.39 | 0.026 | 0.026 | 36 | 26 | – |
| CCC(=O)Nc1ccc(Sc2nc(Nc3cc(C)n[nH]3)cc(N3CC(O)(C4CCCC4)C3)n2)cc1 [Compound I-3] | 0.67 | 0.002 | 0.004 | 26 | 34 | – |
| CCC(=O)Nc1ccc(Sc2nc(Nc3cc(C)n[nH]3)cc(N3CC(O)(C(C)C)C3)n2)cc1 [Compound I-5] | 1.2 | – | 0.033 | 21 | 26 | – |
| CCC(=O)Nc1ccc(Sc2nc(Nc3cc(C)n[nH]3)cc(N3CC(O)(C(C)CC)C3)n2)cc1 (stereo not drawn) [Compound I-6] | – | – | 0.024 | 48 | 44 | 0.77 |
| CCC(=O)Nc1ccc(Sc2nc(Nc3cc(C4CC4)[nH]n3)cc(N3CC(O)(C4CC4)C3)n2)cc1 [Compound I-7] | – | – | 0.022 | 23 | 23 | 0.36 |
| Cc1cc(Nc2cc(N3CC(O)(C4CC4)C3)nc(Sc3ccc(NC(=O)C4CC4)cc3)n2)n[nH]1 [Compound I-8] | 0.87 | 0.04 | 0.033 | 28 | 41 | – |
| Cc1cc(Nc2cc(N3CC(O)(C4CC4)C3)nc(Sc3ccc(NC(=O)C4CCCC4)cc3)n2)[nH]n1 [Compound I-9, N-(4-((4-(3-methyl-1H-pyrazol-5-ylamino)-6-(3-cyclopropyl-3-hydroxyazetidin-1-yl)pyrimidin-2-yl)sulfanyl)phenyl)cyclopentanecarboxamide] | 0.43 | – | 0.016 | 110 | 22 | – |
| O=C(Nc1ccc(Sc2nc(Nc3cc(C4CC4)[nH]n3)cc(N3CC(O)(C4CC4)C3)n2)cc1)C1CC1 [Compound I-10] | – | – | 0.042 | 2.5 | 54 | 0.42 |
| Cc1cc(Nc2cc(N3CC(O)(C4CC4)C3)nc(Sc3ccc(NC(=O)C4CC4)cc3F)n2)[nH]n1 [Compound I-11, N-(4-((4-(3-methyl-1H-pyrazol-5-ylamino)-6-(3-cyclopropyl-3-hydroxyazetidin-1-yl)pyrimidin-2-yl)sulfanyl)-3-fluorophenyl)cyclopropanecarboxamide] | 0.41 | – | 0.028 | 20 | 15 | – |
| Cc1cc(Nc2cc(N3CC(O)(C4CC4)C3)nc(Sc3ccc(NC(=O)C4CC4(F)F)cc3)n2)[nH]n1 (stereo not drawn) [Compound I-12] | 0.35 | 0.019 | – | 15 | 2.9 | – |
| Cc1cc(Nc2cc(N3CC(F)(C4CC4)C3)nc(Sc3ccc(NC(=O)C4CC4)cc3)n2)n[nH]1 [Compound I-13] | 1.1 | 0.072 | 0.039 | 43 | 110 | – |
| Cc1cc(Nc2cc(N3CC(F)(C4CC4)C3)nc(Sc3ccc(NC(=O)CC(F)(F)F)cc3)n2)[nH]n1 [Compound I-14, N-(4-(4-(3-methyl-1H-pyrazol-5-ylamino)-6-(3-cyclopropyl-3-fluoroazetidin-1-yl)pyrimidin-2-ylthio)phenyl)-3,3,3-trifluoropropanamide] | 0.35 | 0.006 | 0.006 | 65 | 11 | – |
| Cc1cc(Nc2cc(N3CC(F)(C4CC4)C3)nc(Sc3ccc(NC(=O)C4CC4)cc3F)n2)n[nH]1 [Compound I-18] | – | 0.027 | – | 160 | 360 | 0.35 |
| Cc1cc(Nc2cc(N3CC(F)(C4CC4)C3)nc(Sc3ccc(NC(=O)CC4CC4)cc3)n2)[nH]n1 [Compound I-19] | – | 0.05 | – | 140 | 130 | 0.44 |
| Cc1cc(Nc2cc(N3CC(F)(C4CC4)C3)nc(Sc3ccc(NC(=O)C4CC4(F)F)cc3)n2)[nH]n1 (stereo not drawn) [Compound I-20] | 0.77 | 0.012 | – | 72 | 51 | – |
| Cc1cc(Nc2cc(N3CC(F)(C4CC4)C3)nc(Sc3ccc(NC(=O)CC(F)(F)F)nc3)n2)[nH]n1 [Compound I-21, N-(5-(4-(3-methyl-1H-pyrazol-5-ylamino)-6-(3-cyclopropyl-3-fluoroazetidin-1-yl)pyrimidin-2-ylthio)pyridin-2-yl)-3,3,3-trifluoropropanamide] | – | 0.02 | – | 120 | 28 | 0.44 |
